Counter-ions that a name gives are not always drawn.
Tests used:
Assay in all cases: MIC by broth microdilution (antibacterial and synergistic activity)
Assay type in all cases: cell-based
[1] = tested on: A. baumannii 19606 (strain 8, OXA-24); details: for MIC: Acinetobacter baumannii, read-out: Antibacterial activity, MIC, inhibitor Alone
Procedure: (§1) Compounds of the present invention alone, avibactam (AVI) alone, relebactam (REL) alone, meropenem (MER) alone, imipenem (IMI) alone, and as a combination of compounds of the present invention, or avibactam or relebactam with test antibiotic (meropenem or imipenem) was tested for antimicrobial activity by determining minimum inhibitory concentration (MIC, mg/L) using the broth microdilution method according to the guidelines of the Clinical Laboratories and Standards Institute (“Methods for Dilution Antimicrobial Susceptibility Tests for Bacterial that Grow Aerobically”, Approved standard, 7th ed., Clinical and Laboratories Standards Institute (CLSI) Document M7-A8, Wayne, Pa., USA, 2009). Meropenem or imipenem as a test antibiotic compound was dissolved in DMSO, and then diluted in microbial growth medium (Mueller-Hinton Broth II, cation adjusted) resulting in a final concentration range of 0.031-64 mg/L in serial two-fold dilution. In all cases the final DMSO concentration was less than 0.5%. Bacteria were added to 96-well microtitre plates containing the serial two-fold dilutions of the compounds; the final cell density was approximately 5×10^5 colony forming units/mL (CFU/mL). Plates were incubated at 37° C. for 18-24 hours and read visually. The MIC, i.e. the lowest concentration of the test compound that inhibited visible growth of the bacteria, was recorded. The same assay conditions were used when the compounds of present invention alone, avibactam or relebactam alone (as a control), and as a combination of the present invention each compound, or avibactam or relebactam with test meropenem or imipenem antibiotic compound was tested for minimum inhibitory concentration (MIC, mg/L). While test meropenem or imipenem was serially diluted as described above, a constant concentration of avibactam, or relebactam or the present invention each compound of 4 mg/L was used.
(§2) Bacterial strains that were used to evaluate the antimicrobial activity using the MIC determination included but were not limited to E. coli clinical isolate (strain 1, TEM-1), E. coli 8739 (strain 2, CTX-M15), K. pneumoniae clinical isolate (strain 3, SHV-1), K. pneumoniae 700603 (strain 4, KPC-3, TEM-1), E. cloacae clinical isolate (strain 5, P99), E. cloacae 700323 (strain 6, AmpC), A. baumannii clinical isolate (strain 7, OXA-23, OXA-40), A. baumannii 19606 (strain 8, OXA-24), P. aeruginosa clinical isolate (strain 9, KPC-2), P. aeruginosa 9027 (strain 10, AmpC).

[2] = tested on: E. coli 8739 (strain 2, CTX-M15); details: for MIC: Escherichia coli, read-out: Antibacterial activity, MIC, inhibitor Alone
Procedure: as §1, §2

[3] = tested on: K. pneumoniae clinical isolate (strain 3, SHV-1); details: strain 3 (SHV-1); for MIC: Klebsiella pneumoniae, read-out: Antibacterial activity, MIC, inhibitor Alone
Procedure: as §1, §2

[4] = tested on: P. aeruginosa clinical isolate (strain 9, KPC-2); details: strain 9 (KPC-2); for MIC: Pseudomonas aeruginosa, read-out: Antibacterial activity, MIC, inhibitor Alone
Procedure: as §1, §2

[5] = tested on: K. pneumoniae 700603 (strain 4, KPC-3, TEM-1); details: strain 4 (KPC-3, TEM-1); for MIC: Klebsiella pneumoniae, read-out: Antibacterial activity, MIC, inhibitor Alone
Procedure: as §1, §2

[6] = tested on: E. cloacae clinical isolate (strain 5, P99); details: strain 5 (P99); for MIC: Enterobacter cloacae, read-out: Antibacterial activity, MIC, inhibitor Alone
Procedure: as §1, §2

[7] = tested on: A. baumannii clinical isolate (strain 7, OXA-23, OXA-40); details: strain 7 (OXA-23/40); for MIC: Acinetobacter baumannii, read-out: Antibacterial activity, MIC, inhibitor Alone
Procedure: as §1, §2

[8] = tested on: E. cloacae 700323 (strain 6, AmpC); details: strain 6 (AmpC); for MIC: Enterobacter cloacae, read-out: Antibacterial activity, MIC, inhibitor Alone
Procedure: as §1, §2

[9] = tested on: P. aeruginosa 9027 (strain 10, AmpC); details: strain 10 (AmpC); for MIC: Pseudomonas aeruginosa, read-out: Antibacterial activity, MIC, inhibitor Alone
Procedure: as §1, §2

[10] = tested on: E. coli clinical isolate (strain 1, TEM-1); details: strain 1 (TEM-1); for MIC: Escherichia coli, read-out: Antibacterial activity, MIC, inhibitor Alone
Procedure: as §1, §2

[11] = strain 8 (OXA-24), inhibitor at constant 4 mg/L

`N=C(NS(=O)(=O)c1cnccn1)[C@@H]1CC[C@@H]2CN1C(=O)N2OS(=O)(=O)O` [Ex. 24, (2S,5R)-7-oxo-2-(N-(pyrazin-2-ylsulfonyl)carbamimidoyl)-1,6-diazabicyclo[3.2.1]octan-6-yl hydrogen sulfate] was tested, and the MIC [1] was over 64 µg/mL, the MIC [2] was over 64 µg/mL and the MIC ([3]; compound alone, no antibiotic) was over 64 µg/mL. The MIC ([4]; compound alone, no antibiotic) was over 64 µg/mL, the MIC ([5]; compound alone, no antibiotic) was over 64 µg/mL and the MIC ([6]; compound alone, no antibiotic) was over 64 µg/mL. It also gave an MIC ([7]; compound alone, no antibiotic) of over 64 µg/mL, an MIC ([8]; compound alone, no antibiotic) of over 64 µg/mL and an MIC ([9]; compound alone, no antibiotic) of over 64 µg/mL. For the same molecule, the MIC ([10]; compound alone, no antibiotic) was over 64 µg/mL.
For `O=C(NC1CCNCC1)[C@@H]1CC[C@@H]2CN1C(=O)N2OS(=O)(=O)O` [REL, relebactam, reference compound], the MIC [1] was over 64 µg/mL, the MIC [2] was over 64 µg/mL and the MIC ([3]; compound alone, no antibiotic) was over 64 µg/mL. It also gave an MIC ([4]; compound alone, no antibiotic) of over 64 µg/mL, an MIC ([5]; compound alone, no antibiotic) of over 64 µg/mL and an MIC ([6]; compound alone, no antibiotic) of over 64 µg/mL. The MIC ([7]; compound alone, no antibiotic) was over 64 µg/mL, the MIC ([8]; compound alone, no antibiotic) was over 64 µg/mL and the MIC ([9]; compound alone, no antibiotic) was over 64 µg/mL. It also gave an MIC ([10]; compound alone, no antibiotic) of over 64 µg/mL.
Molecule `NC(=O)[C@@H]1CC[C@@H]2CN1C(=O)N2OS(=O)(=O)O` [AVI, avibactam, reference compound] has an MIC [1] of over 64 µg/mL, an MIC [2] of over 64 µg/mL and an MIC ([3]; compound alone, no antibiotic) of over 64 µg/mL. For the same molecule, the MIC ([4]; compound alone, no antibiotic) was over 64 µg/mL, the MIC ([5]; compound alone, no antibiotic) was over 64 µg/mL and the MIC ([6]; compound alone, no antibiotic) was over 64 µg/mL. For the same molecule, the MIC ([7]; compound alone, no antibiotic) was over 64 µg/mL, the MIC ([8]; compound alone, no antibiotic) was over 64 µg/mL and the MIC ([9]; compound alone, no antibiotic) was over 64 µg/mL. For the same molecule, the MIC ([10]; compound alone, no antibiotic) was over 64 µg/mL.
`N=C(NS(=O)(=O)CC(F)(F)F)[C@@H]1CC[C@@H]2CN1C(=O)N2OS(=O)(=O)[O-].[Na+]` [Ex. 1, Sodium (2S,5R)-7-oxo-2-(N-((2,2,2-trifluoroethyl)sulfonyl)caramimidoyl)-1,6-diazabicyclo[3.2.1]octan-6-yl sulfate] was tested, and the “Antibacterial activity, MIC, inhibitor Alone” value ([1]; strain 8 (OXA-24), compound alone, no antibiotic) was over 64 µg/mL, the “MIC of imipenem in combination with the inhibitor (IMI + inhibitor)” value (“MIC of imipenem … (IMI + inhibitor)” below) [1, 11] was 0.062 µg/mL and the “MIC of meropenem in combination with the inhibitor (MER + inhibitor)” value (“MIC of meropenem … (MER + inhibitor)” for short) [1, 11] was 0.5 µg/mL. For the same molecule, the “Antibacterial activity, MIC, inhibitor Alone” value ([2]; strain 2 (CTX-M15), compound alone, no antibiotic) was over 64 µg/mL, the “Antibacterial activity, MIC, inhibitor Alone” value ([3]; compound alone, no antibiotic) was over 64 µg/mL and the “MIC of imipenem … (IMI + inhibitor)” value ([3]; inhibitor at constant 4 mg/L) was 0.25 µg/mL. For the same molecule, the “MIC of meropenem … (MER + inhibitor)” value ([3]; inhibitor at constant 4 mg/L) was 0.125 µg/mL, the “Antibacterial activity, MIC, inhibitor Alone” value ([4]; compound alone, no antibiotic) was over 64 µg/mL and the “MIC of imipenem … (IMI + inhibitor)” value ([4]; inhibitor at constant 4 mg/L) was 0.25 µg/mL. For the same molecule, the “MIC of meropenem … (MER + inhibitor)” value ([4]; inhibitor at constant 4 mg/L) was 0.125 µg/mL, the “Antibacterial activity, MIC, inhibitor Alone” value ([5]; compound alone, no antibiotic) was over 64 µg/mL and the “MIC of imipenem … (IMI + inhibitor)” value ([5]; inhibitor at constant 4 mg/L) was 0.25 µg/mL. For the same molecule, the “MIC of meropenem … (MER + inhibitor)” value ([5]; inhibitor at constant 4 mg/L) was under 0.125 µg/mL, the “Antibacterial activity, MIC, inhibitor Alone” value ([6]; compound alone, no antibiotic) was over 64 µg/mL and the “MIC of imipenem … (IMI + inhibitor)” value ([6]; inhibitor at constant 4 mg/L) was 1 µg/mL. For the same molecule, the “MIC of meropenem … (MER + inhibitor)” value ([6]; inhibitor at constant 4 mg/L) was under 0.125 µg/mL, the “Antibacterial activity, MIC, inhibitor Alone” value ([7]; compound alone, no antibiotic) was over 64 µg/mL and the “MIC of imipenem … (IMI + inhibitor)” value ([7]; inhibitor at constant 4 mg/L) was 0.0625 µg/mL. The “MIC of meropenem … (MER + inhibitor)” value ([7]; inhibitor at constant 4 mg/L) was under 0.125 µg/mL, the “Antibacterial activity, MIC, inhibitor Alone” value ([8]; compound alone, no antibiotic) was over 64 µg/mL and the “MIC of imipenem … (IMI + inhibitor)” value ([8]; inhibitor at constant 4 mg/L) was 0.0625 µg/mL. For the same molecule, the “MIC of meropenem … (MER + inhibitor)” value ([8]; inhibitor at constant 4 mg/L) was under 0.125 µg/mL, the “Antibacterial activity, MIC, inhibitor Alone” value ([9]; compound alone, no antibiotic) was over 64 µg/mL and the “MIC of imipenem … (IMI + inhibitor)” value ([9]; inhibitor at constant 4 mg/L) was 0.5 µg/mL. The “MIC of meropenem … (MER + inhibitor)” value ([9]; inhibitor at constant 4 mg/L) was 0.125 µg/mL, the “Antibacterial activity, MIC, inhibitor Alone” value ([10]; compound alone, no antibiotic) was over 64 µg/mL and the “MIC of imipenem … (IMI + inhibitor)” value ([10]; inhibitor at constant 4 mg/L) was 0.125 µg/mL. For the same molecule, the “MIC of meropenem … (MER + inhibitor)” value ([10]; inhibitor at constant 4 mg/L) was under 0.125 µg/mL.
`Cc1ccc(S(=O)(=O)NC(=N)[C@@H]2CC[C@@H]3CN2C(=O)N3OS(=O)(=O)[O-])cc1.[Na+]` [Ex. 9, Sodium (2S,5R)-7-oxo-2-(N-tosylcarbamimidoyl)-1,6-diazabicyclo[3.2.1]octan-6-yl sulfate] showed an MIC [1] of over 64 µg/mL, an MIC [2] of over 64 µg/mL and an MIC ([3]; compound alone, no antibiotic) of over 64 µg/mL. The MIC ([4]; compound alone, no antibiotic) was over 64 µg/mL, the MIC ([5]; compound alone, no antibiotic) was over 64 µg/mL and the MIC ([6]; compound alone, no antibiotic) was over 64 µg/mL. The MIC ([7]; compound alone, no antibiotic) was over 64 µg/mL, the MIC ([8]; compound alone, no antibiotic) was over 64 µg/mL and the MIC ([9]; compound alone, no antibiotic) was over 64 µg/mL. It also gave an MIC ([10]; compound alone, no antibiotic) of over 64 µg/mL.

— patent US12410166B2, “Sulfonylamidine substituted compounds and their use as beta-lactamase inhibitors” (NINGXIA ACADEMY OF AGRICULTURE AND FORESTRY SCIENCES, priority 2021, dated 2025)
